# In patent US11015061B2, “Phthalocyanine-based compound and uses of same” (YAMAMOTO CHEMICALS, INC., priority 2017, dated 2021):
# Assays:
# Assay type in all cases: physicochemical
# [1] = Absorption spectrum of toluene solution (maximum absorption, gram absorption coefficient); settings: for gram absorption coefficient: at maximum absorption
# Procedure: A toluene solution of the compound obtained in this way had maximum absorption at 734.0 nm, and the gram absorption coefficient thereof was 1.21×10^5 mL/g·cm. The absorption spectrum chart thereof is illustrated in FIG. 1.
# [2] = Tts (total solar transmittance) of heat ray shielding film; settings: heat ray shielding film (5 g compound, 50 g acryl resin LP-45M, 2.5 μm on PET) on 3 mm glass plate; JIS R3106
# Excerpt: The phthalocyanine compound (Specific Example (1)-30) produced in Example 1 (5 g), 50 g of an acryl resin LP-45M (trade name, produced by Soken Chemical & Engineering Co., Ltd.), 20 g of methyl ethyl ketone, and 20 g of toluene were mixed and stirred together, thereby producing a resin composition.
# As a transparent substrate, a polyethylene terephthalate film (PET film) having a thickness of 100 μm was bar-coated with the resin composition such that the thickness thereof became 2.5 μm, and then the applied resin composition was dried for 3 minutes at 100° C. Furthermore, the other surface of the PET film (surface not being coated with the resin composition) was bar-coated with a transparent acryl copolymer-based pressure sensitive adhesive such that the thickness thereof became 20 μm, and the applied pressure sensitive adhesive was dried and cured for 3 minutes at 100° C. Thereafter, a release film was bonded to the surface of the pressure sensitive adhesive, thereby producing a heat ray shielding film.
# (§1) In the evaluation test, the release film was peeled from the produced heat ray shielding film, then the heat ray shielding film was compressed on a 5 cm×5 cm×3 mm (thickness) glass plate, and a test piece created in this way was used.
# By using U-3500 type recording spectrophotometer produced by Hitachi, Ltd. as a measurement instrument, Tts of the laminated glass sample was measured based on JIS R3106 “Testing method for transmittance, reflectance, emissivity, and solar heat gain coefficient of flat glasses”.
# Tts (Total solar energy transmitted through a glazing) represents a total solar transmittance.
# [3] = Light fastness test of heat ray shielding film; settings: xenon light 200 hours at 550 W/h, absorbance integrated 400 to 900 nm
# Procedure: as §1
# (§2) For a light fastness test, the absorption spectrum of the test piece was measured using a spectrophotometer (produced by Hitachi, Ltd.: Spectrophotometer U-3500) and adopted as a spectrum before light fastness test. Then, the test piece used for measuring the spectrum before test was irradiated with light for 200 hours at 550 W/h by using a xenon light fastness tester (produced by Toyo Seiki Seisaku-sho, Ltd.: SUNTEST XLS+). The absorption spectrum of the test piece irradiated with light was measured using the spectrophotometer and adopted as a spectrum after light fastness test.
# (§3) In each of the spectra measured as above before and after the light fastness⋅heat resistance test, the values of absorbance within a range of 400 to 900 nm were integrated, and a difference between the integrated value before the light fastness⋅heat resistance test and the integrated value after the light fastness⋅heat resistance test was calculated.
# (§4) The difference ΔE between the absorbance before the light fastness⋅heat resistance test and the absorbance after the light fastness⋅heat resistance test is expressed by the following equation. ΔE (%)={E(400 to 900 nm in E1)−E(400 to 900 nm in E2)}/E(400 to 900 nm in E1)×100
# (§5) E1 represents the spectrum before test, E2 represents the spectrum after test, and Σ represents integration of the values of absorbance.
# (§6) The larger the value of ΔE, the greater the spectrum change between before and after the light fastness⋅heat resistance test.
# [4] = Heat resistance test of heat ray shielding film; settings: 200 hours at 100° C., absorbance integrated 400 to 900 nm
# Procedure: as §1
# (§7) For a heat resistance test, the test piece used for measuring the spectrum before test as described above was treated with heat for 200 hours at a temperature of 100° C. in a thermostat (produced by Yamato Scientific co., ltd.: IG400). By using the spectrophotometer, the absorption spectrum of the heat-treated test piece was measured and adopted as a spectrum after heat resistance test.
# as §3, §4, §5, §6
# [5] = Visible light transmittance of laminated glass sample; settings: 380 to 780 nm, JIS R3212
# Procedure: (§8) The phthalocyanine-based compound (Specific Example (1)-30) produced in Example 1 (0.013 g) was dissolved in 40 g of triethylene glycol-di-2-ethylhexanoate as an organic ester plasticizer. The obtained solution was added to 100 g of a polyvinyl butyral resin (trade name: BH-3, produced by SEKISUI CHEMICAL CO., LTD.), thoroughly melted and kneaded using a mixing roll, and extruded using an extruder, thereby obtaining an interlayer having a thickness of 0.76 mm.
# (§9) The interlayer was cut in size of 100 mm×100 mm, interposed between heat ray absorbing glass plates (100 mm (length)×100 mm (width)×2.0 mm (thickness)) prepared based on JIS R3208, put into a rubber bag, and deaerated for 20 minutes at a degree of vacuum of 2.6 kPa. Then, the deaerated laminate was moved into an oven and further hold for 30 minutes at 90° C. to vacuum press. Thereafter, the laminate was compressed for 20 minutes in an autoclave under the condition of a temperature of 130° C. and a pressure of 1.3 MPa, thereby obtaining a laminated glass sample.
# By using U-3500 type recording spectrophotometer produced by Hitachi, Ltd. as a measurement instrument, the visible light transmittance of the laminated glass samples at a wavelength of 380 to 780 nm was measured based on JIS R3212 “Test methods of safety glazing materials for road vehicles”.
# [6] = Light fastness test of laminated glass; settings: xenon light 200 hours at 550 W/h, absorbance integrated 400 to 900 nm
# Procedure: as §8, §9
# as §2, with “laminated glass” for “test piece”
# as §3, §4
# (§10) E1 represents the spectrum before test, E2 represents the spectrum after test, and Σ represents integration of values of absorbance. The larger the value of ΔE, the greater the spectrum change between before and after the light fastness⋅heat resistance test.
# [7] = Heat resistance test of laminated glass; settings: 200 hours at 100° C., absorbance integrated 400 to 900 nm
# Procedure: as §8, §9
# as §7, with “laminated glass” for “test piece”
# as §3, §4, §10
maximum absorption [1],gram absorption coefficient [1],Tts [2],ΔE (%) Light fastness [3],ΔE (%) Heat resistance [4],Visible light transmittance [5],ΔE (%) Light fastness [6],ΔE (%) Heat resistance [7],SMILES
735.5 nm,78900 mL/g/cm,85.7%,2%,3%,77.6%,3%,4%,Fc1ccccc1OCCCCc1ccc(CCCCOc2ccccc2F)c2c1-c1nc-2nc2[n-]c(nc3nc(nc4[n-]c(n1)c1c(CCCCOc5ccccc5F)ccc(CCCCOc5ccccc5F)c41)-c1c(CCCCOc4ccccc4F)ccc(CCCCOc4ccccc4F)c1-3)c1c(CCCCOc3ccccc3F)ccc(CCCCOc3ccccc3F)c21.[O]=[V+2] [Specific Example (1)-43]
734.5 nm,67500 mL/g/cm,85.6%,3%,4%,77.9%,3%,3%,COc1cccc(OC)c1OCCCCc1ccc(CCCCOc2c(OC)cccc2OC)c2c1-c1nc-2nc2[n-]c(nc3nc(nc4[n-]c(n1)c1c(CCCCOc5c(OC)cccc5OC)ccc(CCCCOc5c(OC)cccc5OC)c41)-c1c(CCCCOc4c(OC)cccc4OC)ccc(CCCCOc4c(OC)cccc4OC)c1-3)c1c(CCCCOc3c(OC)cccc3OC)ccc(CCCCOc3c(OC)cccc3OC)c21.[O]=[V+2] [Specific Example (1)-44]
706.5 nm,60100 mL/g/cm,85.5%,2%,3%,77.4%,3%,4%,COc1cccc(OC)c1OCCCCc1ccc(CCCCOc2c(OC)cccc2OC)c2c1-c1nc-2nc2[n-]c(nc3nc(nc4[n-]c(n1)c1c(CCCCOc5c(OC)cccc5OC)ccc(CCCCOc5c(OC)cccc5OC)c41)-c1c(CCCCOc4c(OC)cccc4OC)ccc(CCCCOc4c(OC)cccc4OC)c1-3)c1c(CCCCOc3c(OC)cccc3OC)ccc(CCCCOc3c(OC)cccc3OC)c21.[Cu+2] [Specific Example (1)-45]
